In PMC4491176, “Caenorhabditis elegans is a useful model for anthelmintic discovery” (Nature Communications, 2015):
Read-outs that look alike come from different tables or passages of the source.

Columns and labels:
Mouse complex II = target: T1, Mouse complex II (Mus musculus, UniProt Q9CQA3+Q9CXV1+Q9CZB0); experiment: Cell-free Complex II functional assay, mouse liver mitochondria; assay type: biochemical, M. musculus
T1 construct: The livers from three 8–10-week-old C57Bl/6 female mice (Charles River) were removed; tissue Charles River (mice); host or cells: crude mitochondria from liver of C57Bl/6 female mice
Description: The livers from three 8–10-week-old C57Bl/6 female mice (Charles River) were removed, collected in 1.5 ml microcentrifuge tubes, flash frozen in liquid nitrogen and stored at −80 °C until needed. Just before mitochondria isolation, the livers were weighed, placed into a 10-cm petri dish and 10 ml isolation buffer A was added per gram of liver tissue. The tissue was finely minced with a razor blade, transferred to a glass Dounce homogenizer and homogenized by 10 strokes on ice. The homogenate was centrifuged at 1,000g for 10 min at 4 °C. The supernatant was collected and centrifuged at 1,000g for 10 min at 4 °C. The supernatant was again collected and centrifuged at 16,000g for 10 min at 4 °C. The pellet was resuspended in 20 ml of isolation buffer B and centrifuged at 16,000g for 10 min at 4 °C. The pellet was resuspended in 20 ml of isolation buffer B, and 1 ml aliquots of the resuspension were distributed into 20 × 1.5 ml microcentrifuge tubes. The aliquoted resuspensions were centrifuged at 16,000g for 10 min at 4 °C. The supernatant was aspirated, the pellet was flash frozen in liquid nitrogen and stored frozen at −80 °C until needed. The mice used for experimentation were housed and used in accordance with ‘the use and care of experimental animals' guidelines. […]
Mitochondrial pellets were thawed on ice and resuspended in 300 μl of cold isolation buffer B. Using the BCA assay, the protein concentration of the mitochondria suspension was determined and was subsequently diluted to a concentration of 0.2 mg ml^−1 with cold isolation buffer B. Complex II enzymatic assays were carried out in 96-well flat bottom plates. […] Absorbance for each well was measured at 600 nm using a SpectraMax Plus 384-well Microplate Reader, combined with SoftmaxPro software at 30-s intervals over a 35-min time period. Absorbance versus time was plotted for each well and enzyme activity was calculated as the slope of the line defined by the points ranging from 4 to 10 min. Per cent activity was calculated by dividing the enzyme activity of the chemical-treated wells by that of the DMSO control wells. […]

[1] = target: C. elegans complex II with SDHC-1(R74K) missense mutation (Caenorhabditis elegans, UniProt O62215+P41956+Q09508+Q09545, R74K); experiment: Cell-free Complex II functional assay, mitochondria from wact-11-resistant mutants RP2674 and RP2698; assay type: biochemical
[2] = test system: three nematode species, zebrafish and HEK cells; experiment: Grouping by phylogenetic bioactivity profile (multi-organism screening pipeline); parameters: key: Group 1 molecules are lethal to only one or two of the three nematode species tested, but are non-lethal to zebrafish and HEK cells.; Group 2 molecules are lethal to all three nematode species, but are non-lethal to zebrafish and human cells.; Group 3 molecule are lethal to fish or HEK cells, regardless of their nematode bioactivity profile; details: nematode selectivity and cross-species lethality group
Excerpt: To further characterize our 275 C. elegans-lethal molecules, we organized them into three separate groups based on their phylogenetic bioactivity profiles (Fig. 2a). Group 1 contains 102 molecules that are lethal to only one or two of the three nematode species tested, but are non-lethal to zebrafish and HEK cells. Group 2 contains 67 compounds that are lethal to all three nematode species, but are non-lethal to zebrafish and human cells. Group 3 contains the remaining 106 compounds that are lethal to fish or HEK cells, and have varied bioactivity in different nematode species. In particular, the 67 molecules in group 2 represent potentially ideal anthelmintic leads; they have activity across multiple nematode species, and appear not to affect vertebrates.

[3] = test system: wact-11-family resistant C. elegans mutants (RP2674, RP2698 and others); experiment: 96-well liquid-based dose-response (in vivo LD100), wact-11-family resistant mutants; details: for In vivo LD100: 6 days; for Resistance of wact-11-family resistant mutants to compound-induced lethality (in words): liquid dose-response of resistant mutants versus N2
Description: (§1) The 96-well liquid-based chemical screening assay was adapted from an established RNAi screening protocol. Briefly, saturated HB101 Escherichia coli culture was concentrated 2-fold using NGM (nematode growth media) containing 3 mg ml^−1 NaCl, 2.5 mg ml^−1 peptone, 5 μg ml^−1 cholesterol, 1 mM CaCl2, 1 mM MgSO4 and 25 mM KH2PO4. A total of 40 μl of NGM+HB101 was dispensed into each well of a 96-well plate, and chemicals were pinned into the wells using a pinning tool with a 300 nl slot volume (V&P Scientific). Approximately 20 synchronized first larval-stage (L1) worms, in 10 μl of M9 buffer (see ref. [24] for the recipe), were then added to each well. The synchronized L1s were obtained from an embryo preparation (see ref. [24] for the protocol) performed the previous day. The final concentration of dimethyl sulfoxide (DMSO) in the wells was 0.6% v/v. A dissection microscope was used to visualize the wells either 5 or 6 days post worm deposition and any obvious chemical-induced phenotypes were noted.
(§2) The 96-well liquid-based assay was also used for all follow-up dose-response experiments in this work. These experiments were carried out in quadruplicate, and the total number of worms in each well was counted 6 days after worm deposition.

C. elegans N2 = experiment: 96-well liquid-based dose-response (in vivo LD100), wild-type worms; details: lowest concentration with no viable animals in four of four wells, 6 days after 20 L1 worms deposited
Description: as §1, §2

[4] = target: wild-type C. elegans complex II (Caenorhabditis elegans, UniProt O62215+P41956+Q09508+Q09545); experiment: biochemical; assay type: biochemical
[5] = test system: complex II from the parasitic nematode Ascaris suum; parameters: method as in PMID 19724139, PMID 23333273; details: cited from earlier work
[6] = M. musculus, C57Bl/6 liver mitochondria, read-out: In vitro Complex II IC50
[7] = read-out: In vitro Complex II IC50, C. elegans, strain RP2674, SDHC R74K
[8] = read-out: In vitro Complex II IC50, C. elegans, strain RP2698, SDHC R74K
[9] = C. elegans strain RP2674 (SDHC R74K)
[10] = C. elegans strain RP2698 (SDHC R74K)
[11] = C. elegans, strain N2, SDHC residue change none, read-out: In vitro Complex II IC50

T1 sequence (Q9CZB0 30-169): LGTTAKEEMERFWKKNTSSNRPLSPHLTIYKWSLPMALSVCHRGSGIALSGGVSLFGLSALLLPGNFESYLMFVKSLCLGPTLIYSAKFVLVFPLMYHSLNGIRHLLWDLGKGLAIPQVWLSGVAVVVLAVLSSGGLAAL
T1 sequence (Q9CQA3 31-282): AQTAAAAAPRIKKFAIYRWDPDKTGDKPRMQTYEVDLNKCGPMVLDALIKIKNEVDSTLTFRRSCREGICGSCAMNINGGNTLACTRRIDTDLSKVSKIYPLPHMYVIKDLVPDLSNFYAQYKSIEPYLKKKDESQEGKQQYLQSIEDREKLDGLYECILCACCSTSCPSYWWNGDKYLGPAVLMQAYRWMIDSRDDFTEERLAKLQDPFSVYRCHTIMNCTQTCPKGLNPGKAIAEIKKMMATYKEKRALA
T1 sequence (Q9CXV1 57-159): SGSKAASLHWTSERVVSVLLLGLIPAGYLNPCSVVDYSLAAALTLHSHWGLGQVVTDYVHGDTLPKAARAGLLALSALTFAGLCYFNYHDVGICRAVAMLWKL
T1 sequence (Q8K2B3 43-664 partner): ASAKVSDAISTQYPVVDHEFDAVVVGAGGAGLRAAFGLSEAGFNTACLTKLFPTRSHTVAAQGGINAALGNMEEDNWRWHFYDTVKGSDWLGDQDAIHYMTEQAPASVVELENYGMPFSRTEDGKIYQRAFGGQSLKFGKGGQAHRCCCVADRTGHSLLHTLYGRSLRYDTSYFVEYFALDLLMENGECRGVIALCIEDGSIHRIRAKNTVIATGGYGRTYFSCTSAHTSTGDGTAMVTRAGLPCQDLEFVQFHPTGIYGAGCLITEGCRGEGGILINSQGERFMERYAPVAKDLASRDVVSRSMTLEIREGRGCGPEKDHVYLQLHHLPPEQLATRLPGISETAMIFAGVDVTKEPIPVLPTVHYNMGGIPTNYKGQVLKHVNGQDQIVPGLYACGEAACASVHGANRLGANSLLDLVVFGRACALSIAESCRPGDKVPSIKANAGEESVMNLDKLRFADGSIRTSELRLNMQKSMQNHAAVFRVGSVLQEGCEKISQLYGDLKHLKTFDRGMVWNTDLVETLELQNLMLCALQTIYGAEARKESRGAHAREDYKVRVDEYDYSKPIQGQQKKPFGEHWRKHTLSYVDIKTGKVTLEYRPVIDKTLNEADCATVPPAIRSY
Chain of C. elegans complex II with SDHC-1(R74K) missense mutation (O62215 whole entry): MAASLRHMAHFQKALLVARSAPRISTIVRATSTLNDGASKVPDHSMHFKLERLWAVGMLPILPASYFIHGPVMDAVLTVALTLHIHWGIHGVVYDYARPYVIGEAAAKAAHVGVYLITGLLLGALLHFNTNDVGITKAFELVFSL
Chain of C. elegans complex II with SDHC-1(R74K) missense mutation (P41956 whole entry R74K): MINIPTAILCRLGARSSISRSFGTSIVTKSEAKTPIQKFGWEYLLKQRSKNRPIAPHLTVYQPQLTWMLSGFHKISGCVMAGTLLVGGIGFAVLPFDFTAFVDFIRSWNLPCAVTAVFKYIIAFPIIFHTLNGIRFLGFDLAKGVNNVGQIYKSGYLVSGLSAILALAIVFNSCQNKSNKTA
Chain of C. elegans complex II with SDHC-1(R74K) missense mutation (Q09508 32-646): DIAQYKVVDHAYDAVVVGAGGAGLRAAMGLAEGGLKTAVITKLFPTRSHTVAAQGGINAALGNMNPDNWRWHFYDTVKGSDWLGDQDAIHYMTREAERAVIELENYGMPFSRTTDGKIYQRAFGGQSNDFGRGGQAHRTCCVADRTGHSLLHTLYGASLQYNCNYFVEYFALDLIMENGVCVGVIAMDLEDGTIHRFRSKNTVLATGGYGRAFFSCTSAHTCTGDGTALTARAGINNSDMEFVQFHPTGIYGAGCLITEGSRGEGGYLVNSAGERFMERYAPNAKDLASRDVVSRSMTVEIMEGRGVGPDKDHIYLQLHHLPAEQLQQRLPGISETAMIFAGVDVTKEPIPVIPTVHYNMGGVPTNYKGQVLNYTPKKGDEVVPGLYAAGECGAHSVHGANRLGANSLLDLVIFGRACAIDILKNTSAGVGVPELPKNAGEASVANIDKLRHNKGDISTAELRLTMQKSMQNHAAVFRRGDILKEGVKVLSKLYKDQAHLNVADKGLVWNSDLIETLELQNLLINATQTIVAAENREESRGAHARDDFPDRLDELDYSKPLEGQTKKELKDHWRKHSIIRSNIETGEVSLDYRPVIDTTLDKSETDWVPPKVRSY
Chain of C. elegans complex II with SDHC-1(R74K) missense mutation (Q09545 whole entry): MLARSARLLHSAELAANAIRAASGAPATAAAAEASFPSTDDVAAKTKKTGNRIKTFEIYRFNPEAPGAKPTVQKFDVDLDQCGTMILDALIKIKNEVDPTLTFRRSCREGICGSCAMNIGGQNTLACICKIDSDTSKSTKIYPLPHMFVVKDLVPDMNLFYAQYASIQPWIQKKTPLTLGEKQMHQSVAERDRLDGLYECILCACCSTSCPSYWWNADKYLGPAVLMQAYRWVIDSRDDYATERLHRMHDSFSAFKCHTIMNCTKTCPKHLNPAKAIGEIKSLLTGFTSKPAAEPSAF
Chain of wild-type C. elegans complex II (O62215 whole entry): as the sequence (O62215 whole entry) above
Chain of wild-type C. elegans complex II (Q09545 whole entry): as the sequence (Q09545 whole entry) above
Chain of wild-type C. elegans complex II (Q09508 32-646): as the sequence (Q09508 32-646) above
Chain of wild-type C. elegans complex II (P41956 whole entry): as the sequence (P41956 whole entry R74K) above, with K74R counted along it

CCc1ccc(OCCNC(=O)c2ccccc2I)cc1 [wact-12]
IC50 (Mouse complex II; [6]): > 10 µM
IC50 [1]: > 10 µM
IC50 [1, 7]: > 10 µM
IC50 [1, 8]: > 10 µM
Group # (Bioactivity Group #) [2]: 2
In vivo LD100 [3, 9]: >120 µM
In vivo LD100 [3, 10]: >120 µM
In vivo LD100 (C. elegans N2): 7.5 µM
IC50 [4]: 0.0057 µM

O=C(Nc1ccccc1-c1ccc(Cl)cc1)c1cccnc1Cl [Boscalid]
In vivo LD100 (C. elegans N2): >120 µM
IC50 [4]: 0.549 µM

Cc1occc1C(=O)Nc1ccccc1 [Fenfuran]
In vivo LD100 (C. elegans N2): >120 µM
IC50 [4]: 5.28 µM

CC1=NS(=O)(=O)c2cc(Cl)ccc2N1 [Diazoxide]
In vivo LD100 (C. elegans N2): >120 µM
IC50 [4]: > 10 µM

O=C(NCCc1ncc(C(F)(F)F)cc1Cl)c1ccccc1C(F)(F)F [Fluopyram]
Resistance of wact-11-family resistant mutants to compound-induced lethality (in words) [3]: resist the lethality
In vivo LD100 (C. elegans N2): 0.469 µM
IC50 [4]: 0.0018 µM
Less inhibiting than wact-11 f and wact-11 m ([4]; C. elegans N2 complex II IC50): ~2 fold

COc1[nH]c(=O)c(C(=O)[C@@H](C)C[C@H](C)[C@@H](Cl)CCl)c(O)c1OC [Atpenin A5]
IC50 (Mouse complex II): 0.593 µM
In vivo LD100 (C. elegans N2): >120 µM

O=C([O-])CC(=O)[O-].[Na+].[Na+] [Malonate, disodium malonate]
IC50 ([1]; C. elegans, strain RP2674, SDHC R74K, read-out: In vitro Complex II IC50): 4200 µM
IC50 ([1]; C. elegans, strain RP2698, SDHC R74K, read-out: In vitro Complex II IC50): 4200 µM
In vivo LD100 (C. elegans N2): >120 µM
IC50 [4, 11]: 4900 µM

O=C(CC(=O)C(F)(F)F)c1cccs1 [TTFA, thenoyltrifluoroacetone]
In vivo LD100 (C. elegans N2): >120 µM
IC50 [4, 11]: > 10 µM

CC1=C(C(=O)Nc2ccccc2)SCCO1 [Carboxine]
In vivo LD100 (C. elegans N2): >120 µM
IC50 [4]: > 10 µM

Cc1nc(C(F)(F)F)c(C(=O)Nc2c(Br)cc(OC(F)(F)F)cc2Br)s1 [Thifluzamide]
In vivo LD100 (C. elegans N2): >120 µM
IC50 [4]: 3.82 µM

CC(C)Oc1cccc(NC(=O)c2ccccc2C(F)(F)F)c1 [Flutolanil]
Inhibition of Ascaris suum complex II in vitro (in words) [5]: inhibit
In vivo LD100 (C. elegans N2): >120 µM
IC50 [4]: 0.311 µM

Cc1ccc(SCCNC(=O)c2ccccc2I)cc1 [wact-12c]
In vivo LD100 (C. elegans N2): >120 µM
IC50 [4, 11]: 0.133 µM

C/C=C/CC(C)C(=O)c1c(O)c(OC)c(OC)[nH]c1=O (stereo not shown) [Harz, harzianopyridone]
In vivo LD100 (C. elegans N2): >120 µM
IC50 [4, 11]: > 10 µM

O=C(Nc1ccccc1)c1ccccc1I [Benodanil]
Resistance of wact-11-family resistant mutants to compound-induced lethality (in words) [3]: resist the lethality
In vivo LD100 (C. elegans N2): 120 µM
IC50 [4]: 0.186 µM

CCCCCNC(=O)c1ccccc1SC [wact-127]
Group # (Bioactivity Group #) [2]: 2

O=C(NCCc1ccc(Cl)cc1)c1ccccc1C(F)(F)F [wact-11]
IC50 (Mouse complex II; [6]): > 10 µM
IC50 [1]: > 10 µM
IC50 [1, 7]: > 10 µM
IC50 [1, 8]: > 10 µM
Group # (Bioactivity Group #) [2]: 2
In vivo LD100 [3, 9]: >120 µM
In vivo LD100 [3, 10]: >120 µM
Resistance of wact-11-family resistant mutants to compound-induced lethality (in words) [3]: at least some resistance
In vivo LD100 (C. elegans N2): 7.5 µM
IC50 [4]: 0.0074 µM
